The numbers were not newly measured in US11707455B2, “Pharmaceutical composition containing dabigatran etexilate and preparation method thereof” (SHANGHAI WD PHARMACEUTICAL CO., LTD, priority 2018, dated 2023), which cites them from elsewhere.

SMILES strings stand for the structures.

The conditions of series [1]: in vivo.
The conditions of series [2]: pH 1.

In the case of `CCCCCCOC(=O)N=C(N)c1ccc(NCc2nc3cc(C(=O)N(CCC(=O)OCC)c4ccccn4)ccc3n2C)cc1.CS(=O)(=O)O` [DEM], the Cmax variation range in series [1] was at most 5 folds. For the same molecule, in series [2], the maximum solubility entry is listed as “greater than 80 mg/mL”.
